Entries after “also recorded” stand apart in the source; their conditions may differ.
Key:
[1] = Antiandrogenic efficacy compared with CMA; settings: no method described
[2] = Permeation through human abdominal skin in a flow-through cell; type: in vitro ADME; settings: for average dose released by human abdominal skin after 24 hours: mean of 3 independent experiments, 5% suspension in aqueous 0.05% polysorbate 80 solution, dissected skin approx. 300 μm, approx. 19.7 mm^2, 34° C., receptor fluid pH 7.35; for skin penetration compared with CMA (times lower) / skin permeability / skin penetration compared with CMA (in words): relative to CMA
Description: Determination of Permeation of Chlormadinone Acetate (CMA) and 3β-Hydroxychlormadinone Acetate Through Human Abdominal Skin
Fragments of human abdominal skin arising during stomach reduction operations were placed in a Petri dish with dissection solution (Na^+: 144 mmol/l, K^+: 5.9 mmol/l, Ca^2+: 3.7 mmol/l, Cl,^−: 157 mmol/l). The skin fragments were reduced in thickness from the corium side, in several steps, down to a layer thickness of approx. 300 μm, while being kept moist with the dissection solution. Mechanically stable dissected skin was thus obtained, consisting of epidermis with approx. 150-200 μm of cutis. The layer thickness of the dissected skin fragments was determined by measuring with an external screw-type micrometer made by MITUTOYO. The area of the dissected skin fragments used amounted to approx. 19.7 mm^2.
Permeation of CMA respectively 3β-hydroxychlormadinone acetate through human abdominal skin was determined in a flow-through cell, which is illustrated schematically in FIG. 1. A receptor fluid (1) was here pumped past the underside of the dissected skin (2) with a peristaltic pump at a rate of 270 μl per hour. The dissected skin was clamped between the upper part (3) and the lower part (4) of the permeability cell (5). From above, vehicle with 3β-hydroxychlormadinone acetate (5% suspension in aqueous 0.05% polysorbate 80 solution) or chlormadinone acetate (5% suspension in aqueous 0.05% polysorbate 80 solution) was applied in each case to the skin, which then diffused through the dissected skin (2) into the receptor fluid (1). The dissected skin was moistened by a stationary donor fluid (9), which is situated in a reservoir (7). The internal diameter of the receptor fluid feed line (6) was 0.6 mm, and the receptor fluid volume below the skin amounted to approx. 80 μl. The receptor fluid (1) was analysed at fixed intervals by means of a fraction collector (8) and then by HPLC. These experiments allowed a quantitative statement to be made about the amount of substance diffused as a function of time.
An aqueous, isotonic tris buffer (20 mmol/l) with 20% ethanol was used as the receptor fluid and adjusted with NaCl to 310 mosmol (0.9 wt. %). The pH value of the receptor fluid was 7.35. A hole punch was used to punch a piece corresponding to the area of the dissected skin out of a plaster containing the active ingredient to be investigated, said piece being stuck to the dissected skin. […] The experiments were carried out at a test temperature of 34° C. In each case 3 independent series of measurements were made with CMA respectively 3β-hydroxychlormadinone acetate.

SMILES	antiandrogenic efficacy relative to CMA (ratio) [1] [times]	average dose released by human abdominal skin after 24 hours [2] [µg]	skin penetration compared with CMA (times lower) [2] [times]	skin permeability / skin penetration compared with CMA (in words) [2]
CC(=O)O[C@]1(C(C)=O)CC[C@H]2[C@@H]3C=C(Cl)C4=C[C@@H](O)CC[C@]4(C)[C@H]3CC[C@@]21C [3β-hydroxychlormadinone acetate, 17α-acetoxychloropregna-4,6-dien-3β-ol-20-one]	0.7	0.7	6	far lesser degree of skin penetration compared with CMA; also recorded: far less than that of CMA
CC(=O)O[C@]1(C(C)=O)CC[C@H]2[C@@H]3C=C(Cl)C4=CC(=O)CC[C@]4(C)[C@H]3CC[C@@]21C [CMA, chlormadinone acetate]	–	4.4	–	–
CC(=O)O[C@]1(C(C)=O)CC[C@H]2[C@@H]3C=C(Cl)C4=C[C@H](O)CC[C@]4(C)[C@H]3CC[C@@]21C [3α-hydroxychlormadinone acetate, 17α-acetoxychloropregna-4,6-dien-3α-ol-20-one]	0.7	–	6	far lesser degree of skin penetration compared with CMA

— US8465763B2, “3-hydroxychlormadinone acetate for the topical treatment of androgen-dependent skin diseases” (Richter Gedeon Nyrt., priority 2006, dated 2013)
